Test results from patent publication US9447083B2, “N-acylhydrazone derivatives for selective T cell inhibitor and anti-lymphoid malignancy drug” (CHONG KUN DANG PHARMACEUTICAL CORP., priority 2012, dated 2016).

system: Jurkat T cells; assay: Pro-apoptotic activity on Jurkat T cells (FITC-Annexin V / 7-AAD flow cytometry); assay type: cell-based; conditions: Homo sapiens, 72 hours, cells stained with FITC-Annexin V and 7-AAD among total cells, read-out: Cell Apoptosis Effect to Jurkat T Cell (% in 5 μM)
Experimental: In order to investigate the effects of the prepared compounds, the apoptosis-inducing effects of the compounds on human T cell acute lymphoblastic leukemia cell line, Jurkat T cells, were evaluated in the following manner.
Jurkat T cells cultured in RPMI medium containing 10% fetal bovine serum (FBS) were collected and stained with trypan blue (Sigma). […] Then, the cells were centrifuged at 1200 rpm at room temperature for 5 minutes and re-suspended in 10% FBS-containing RPMI medium at a concentration of 1.5×10^5 cells/mL. 200 μL of the cell suspension was dispensed into each well of a flat bottom 96-well plate (Costar). Then, the cells were treated with 10 μL of the diluted compounds in RPMI medium at final concentrations of […] or 5 μM, and incubated in a 5% CO2 incubator at 37° C. for 72 hours. In a vehicle control group, the cells were treated with 10 μL of RPMI medium containing 1% of dimetylsulfoxide (DMSO, Sigma). The incubated cells were harvested, put into 5-mL FACS tubes (BD Falcon), washed with 1 mL of phosphate buffered saline (PBS), and then re-suspended in 0.1 mL of binding buffer (10 mM Hepes-NaOH, pH 7.4, 140 mM NaCl, […] CaCl2). The suspended cells were stained with fluorescein isothiocyanate (FITC)-Annexin V (BD Biosciences) and 7-amino-actinomycin D (7-AAD, e-Biosciences) at room temperature for 15 minutes. The stained cells were suspended in 0.3 mL of binding buffer and analyzed by a flow cytometer. Apoptosis was determined by the ratio (%) of cells stained with FITC-Annexin V and 7-AAD among the total cells (see Tables 10 and 11).

Compound | cytotoxicity at 5 µM [%]
O=C(COc1ccccc1C(F)(F)F)N/N=C/c1ccc2[nH]ccc2c1 [Compound 193] | 100
Cc1cc(Cl)cc(C)c1OCC(=O)N/N=C/c1c[nH]c2ccccc12 [Compound 156, (E)-N′-((1H-indol-3-yl)methylene)-2-(4-chloro-2,6-dimethylphenoxy)acetohydrazide] | 90
Cc1cc(C)c(NCC(=O)N/N=C/c2cccc3[nH]ccc23)c(C)c1 [Compound 135, (E)-N′-((1H-indol-4-yl)methylene)-2-(mesitylamino)acetohydrazide] | 100
Cc1cc(-c2cccnc2)cc(C)c1OCC(=O)N/N=C/c1c[nH]c2ccccc12 [Compound 138] | 90
Cc1cc(C)c(OCC(=O)N/N=C/c2cccc3[nH]cc(CN4CCC(C)CC4)c23)c(C)c1 [Compound 211] | 100
Cc1ccnc(C)c1OCC(=O)N/N=C/c1ccc2cc[nH]c2c1 [Compound 191] | 100
Cc1cc(C)c(OCC(=O)N/N=C/c2cc3ccccc3[nH]2)c(C)c1 [Compound 109, (E)-N′-((1H-indol-2-yl)methylene)-2-(mesityloxy)acetohydrazide] | 100
Cc1ccccc1OCC(=O)N/N=C/c1ccc2cc[nH]c2c1 [Compound 034] | 90
Cc1cccc(C)c1OCC(=O)N/N=C/c1ccc2cc[nH]c2c1 [Compound 258, (E)-N′-((1H-indol-6-yl)methylene)-2-(2,6-dimethylphenoxy)acetohydrazide] | 100
Cc1cc(C)c(OCC(=O)N/N=C/c2ccc3c(Br)c[nH]c3c2)c(C)c1 [Compound 256] | 100
Cc1cc(C)c(NCC(=O)N/N=C/c2c[nH]c3ccccc23)c(C)c1 [Compound 136] | 100
O=C(COc1cccnc1Cl)N/N=C/c1cccc2[nH]ccc12 [Compound 196, (E)-N′-((1H-indol-4-yl)methylene)-2-(2-chloropyridin-3-yloxy)acetohydrazide] | 100
Cc1cc(CO)cc(C)c1OCC(=O)N/N=C/c1cccc2[nH]ccc12 [Compound 227, (E)-N′-((1H-indol-4-yl)methylene)-2-(4-(hydroxymethyl)-2,6-dimethylphenoxy)acetohydrazide] | 90
Cc1cc(C)c(SCC(=O)N/N=C/c2c[nH]c3ccccc23)c(C)c1 [Compound 158, (E)-N′-((1H-indol-3-yl)methylene)-2-(mesitylthio)acetohydrazide] | 100
O=C(COc1ccccc1-c1cccnc1)N/N=C/c1cccc2[nH]ccc12 [Compound 146, (E)-N′-((1H-indol-4-yl)methylene)-2-(2-(pyridin-3-yl)phenoxy)acetohydrazide] | 100
Cc1cc(-c2cncnc2)cc(C)c1OCC(=O)N/N=C/c1cccc2[nH]ccc12 [Compound 149, (E)-N′-((1H-indol-4-yl)methylene)-2-(2,6-dimethyl-4-(pyrimidin-5-yl)phenoxy)acetohydrazide] | 100
Cc1cc(-c2cccnc2)cc(C)c1OCC(=O)N/N=C/c1ccc2cc[nH]c2c1 [Compound 139, (E)-N′-((1H-indol-6-yl)methylene)-2-(2,6-dimethyl-4-(pyridin-3-yl)phenoxy)acetohydrazide] | 100
Cc1cc(C)c(OCC(=O)N/N=C/c2ccc3cc[nH]c3c2)c(-c2cccnc2)c1 [Compound 183, (E)-N′-((1H-indol-6-yl)methylene)-2-(2,4-dimethyl-6-(pyridin-3-yl)phenoxy)acetohydrazide] | 100
Cc1cc(C(N)=O)cc(C)c1OCC(=O)N/N=C/c1ccc2cc[nH]c2c1 [Compound 239] | 100
Cc1cc(C)c(OCC(=O)N/N=C/c2ccc3snnc3c2)c(C)c1 [Compound 206] | 100
Cc1cc(C)c(OCC(=O)N/N=C/c2ccc3[nH]cnc3c2)c(C)c1 [Compound 205] | 100

same assay, conditions: Homo sapiens, 72 hours, cells stained with FITC-Annexin V and 7-AAD among total cells, read-out: Jurkat T Cell Apoptosis (% in 5 μM)

Compound | cytotoxicity at 5 µM [%]
Cc1cccc(OCC(=O)N/N=C/c2ccc3cc[nH]c3c2)c1C [Compound 327] | 95
Cc1cc(C)c(OCC(=O)N/N=C/c2cccc3[nH]ccc23)c(C2CCOC2)c1 (stereo not drawn) [Compound 320, (E)-N′-((1H-indol-4-yl)methylene)-2-(2,4-dimethyl-6-(tetrahydrofuran-3-yl)phenoxy)acetohydrazide] | 100
O=C(COc1cccnc1N1CCCC1)N/N=C/c1ccc2cc[nH]c2c1 [Compound 331, (E)-N′-((1H-indol-6-yl)methylene)-2-((2-(pyrrolidin-1-yl)pyridin-3-yl)oxy)acetohydrazide] | 100
Cc1cccc(OCC(=O)N/N=C/c2cccc3[nH]ccc23)c1C [Compound 326, (E)-N′-((1H-indol-4-yl)methylene)-2-(2,3-dimethylphenoxy)acetohydrazide] | 95
O=C(COc1cccc(-c2cccnc2)c1)N/N=C/c1cccc2[nH]ccc12 [Compound 358, (E)-N′-((1H-indol-4-yl)methylene)-2-(3-(pyridin-3-yl)phenoxy)acetohydrazide] | 100
CCc1nc(C)ccc1OCC(=O)N/N=C/c1cccc2[nH]ccc12 [Compound 329, (E)-N′-((1H-indol-4-yl)methylene)-2-((2-ethyl-6-methylpyridin-3-yl)oxy)acetohydrazide] | 100
Cc1cc(C)c(OCC(=O)N/N=C/c2ccc3cc[nH]c3c2)c(-c2cccs2)c1 [Compound 345] | 95
Cc1cc(F)cc(C2CCOC2)c1OCC(=O)N(C)/N=C/c1ccc2ccn(C)c2c1 (stereo not drawn) [Compound 380, (E)-2-(4-fluoro-2-methyl-6-(tetrahydrofuran-3-yl)phenoxy)-N-methyl-N′-((1-methyl-1H-indol-6-yl)methylene)acetohydrazide] | 100
Cc1cc(OCC(=O)N/N=C/c2ccc3cc[nH]c3c2)cc(C)n1 [Compound 288] | 90
N#Cc1cc(Br)ccc1OCC(=O)N/N=C/c1cccc2[nH]ccc12 [Compound 330, (E)-N′-((1H-indol-4-yl)methylene)-2-(4-bromo-2-cyanophenoxy)acetohydrazide] | 80
Cc1cc(-c2ccoc2)cc(C)c1OCC(=O)N/N=C/c1ccc2cc[nH]c2c1 [Compound 322, (E)-N′-((1H-indol-6-yl)methylene)-2-(4-(furan-3-yl)-2,6-dimethylphenoxy)acetohydrazide] | 100
Cc1cc(F)cc(C2CCOC2)c1OCC(=O)N/N=C/c1cccc2[nH]ccc12 (stereo not drawn) [Compound 379, (E)-N′-((1H-indol-4-yl)methylene)-2-(4-fluoro-2-methyl-6-(tetrahydrofuran-3-yl)phenoxy)acetohydrazide] | 100
Cc1cc(C)c(OCC(=O)N/N=C/c2ccc3cc[nH]c3c2)c(Br)c1 [Compound 260, (E)-N′-((1H-indol-6-yl)methylene)-2-(2-bromo-4,6-dimethylphenoxy)acetohydrazide] | 100
Cc1cc(C2CCOC2)cc(C)c1OCC(=O)N/N=C/c1ccc2cc[nH]c2c1 (stereo not drawn) [Compound 323, (E)-N′-((1H-indol-6-yl)methylene)-2-(2,6-dimethyl-4-(tetrahydrofuran-3-yl)phenoxy)acetohydrazide] | 100
COc1ccc(OCC(=O)N/N=C/c2ccc3cc[nH]c3c2)c(-c2ccco2)c1 [Compound 347] | 100
